Results from paper PMC3106419 (Bioconjugate chemistry, 2009).

Molecular target: T1, human P2Y14 receptor (Homo sapiens, UniProt Q15391)
T1 sequence (Q15391 1-338): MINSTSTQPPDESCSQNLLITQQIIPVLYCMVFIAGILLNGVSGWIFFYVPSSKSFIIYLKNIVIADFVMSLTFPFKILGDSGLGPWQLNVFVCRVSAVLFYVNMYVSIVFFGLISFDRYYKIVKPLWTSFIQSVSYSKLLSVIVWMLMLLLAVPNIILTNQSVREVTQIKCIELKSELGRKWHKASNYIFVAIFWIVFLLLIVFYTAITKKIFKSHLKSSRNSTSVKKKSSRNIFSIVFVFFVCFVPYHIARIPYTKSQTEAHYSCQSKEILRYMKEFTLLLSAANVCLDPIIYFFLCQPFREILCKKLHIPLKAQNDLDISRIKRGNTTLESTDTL
Experiment: Inhibition of forskolin-stimulated cyclic AMP accumulation in P2Y14-HEK293 cells
Type: cell-based
Details: for relative potency at the P2Y14 receptor: comparator named in the value; for fold more potent than native agonist UDPG 1: potency ratio vs compound 1 at hP2Y14 receptor; for fold more potent than monomer 3a: potency ratio vs ethylenediamine analogue 3a at hP2Y14 receptor

Compound | relative potency at the P2Y14 receptor | further results
G3-(UDPGA)4.3 [compound 8] | considerably less potent than 9, but similar in potency to 1 | –
O=C(O)[C@H]1O[C@H](OP(=O)(O)OP(=O)(O)OC[C@H]2O[C@@H](n3ccc(=O)[nH]c3=O)[C@H](O)[C@@H]2O)[C@H](O)[C@@H](O)[C@@H]1O [compound 2, uridine-5′-diphosphoglucuronic acid, reference compound] | approximately equipotent to 1 | –
G6-(UDPGA)147 [compound 12] | significantly more potent than 9 | –
G3-(UDPGA)20.1 [compound 9] | – | fold more potent than native agonist UDPG 1: approximately 100 fold
G3-(UDPGA)20.1-(AlexaFluor488)2.3 [compound 14] | – | fold more potent than native agonist UDPG 1: 7 fold; fold less potent than conjugate 9 (potency ratio vs compound 9 at hP2Y14 receptor): 17 fold
UDPGA-ethylenediamine [3a] | considerably less potent | –
G3-(UDPGA)20.1-(Biotin)4.9 [compound 13] | essentially as potent as 9 | –
G3-(UDPGA)20.1-(DTPA)4.5 [compound 15] | essentially as potent as 9 | –
G2.5-(UDPGA-ethylenediamine)17.3 [compound 10] | – | fold more potent than monomer 3a: more than 800 fold
G5.5-(UDPGA-ethylenediamine)29.9 [compound 11] | – | fold more potent than monomer 3a: more than 800 fold
